Laboratory results as given in US4970205A, “Sulfonic acid substituted aromatic steroids as inhibitors of steroid 5-α-reductase” (SmithKline Beecham Corporation, priority 1988, dated 1990).
Like-named read-outs stand apart in the source and are kept apart here.

How the values were obtained:
steroid 5-α-reductase = conditions: cited from earlier work; for Ki / reversibility of inhibition (with Ki): Table I; for time-dependence of 5-α-reductase inhibition: footnote text of Table I
[1] = molecular target: T1, human steroid 5-α-reductase (Homo sapiens, UniProt P31213); assay: inhibition of human steroid 5-α-reductase using tissue from hyperplastic human prostates ([14C]-testosterone conversion, Dixon plot); assay type: biochemical; conditions: human prostatic particulate, pH 5.0, 37° C., 20 to 30 minutes; competitive against testosterone assumed
T1 construct: Frozen human prostates were thawed and minced into small pieces; from tissue; host or cells: hyperplastic human prostate, 140,000 x g particulate fraction
T1 sequence (P31213 1-254): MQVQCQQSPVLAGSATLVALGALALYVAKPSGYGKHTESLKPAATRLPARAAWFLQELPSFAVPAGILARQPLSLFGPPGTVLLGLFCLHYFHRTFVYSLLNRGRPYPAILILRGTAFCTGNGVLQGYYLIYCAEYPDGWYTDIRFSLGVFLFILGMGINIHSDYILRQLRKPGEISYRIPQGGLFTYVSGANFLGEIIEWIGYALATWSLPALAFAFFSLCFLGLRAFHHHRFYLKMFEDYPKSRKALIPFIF
Protocol: A compound of the invention, potassium 17b-(N,N-diisopropylcarboxamide)-estr-1,3,5(10)-triene-3-sulfonate, was tested for potency in inhibiting human steroid 5-α-reductase using tissue from hyperplastic human prostates. In determining potency in inhibiting the human enzyme, the following procedure was employed:
Frozen human prostates were thawed and minced into small pieces (5 mm^3). The tissue was homogenized in 3 to 5 volumes of 20 mM potassium phosphate buffer, pH 6.5, containing 0.33 M sucrose, 1 mM dithiothreitol, and […] with a Brinkmann Polytron (Sybron Corporation, Westbury, N.Y.). The solution was subjected to sonication for 3 to 5 minutes with a Sonifier (Branson Sonic Power Co.) followed by hand homogenization in a glass-to-glass Dounce homogenizer (Kontes Glass Company, Vineland, N.J.). […]
A constant amount of [^14 C]-testosterone (52 to 55 mCi/mmol, New England Nuclear, Boston, Mass.) in ethanol and varying amounts of the potential inhibitor in ethanol were deposited in test tubes and concentrated to dryness in a SAVANT Speed Vac. […] The radiochemical content in the bands of the substrate and the products was determined with a BIOSCAN Imaging Scanner (Bioscan, Inc., Washington, D.C.). The percent of recovered radiolabel converted to product was calculated, from which enzyme activity was determined. […]

Row | SMILES | Ki (steroid 5-α-reductase) | reversibility of inhibition (with Ki) (steroid 5-α-reductase) | Ki (steroid 5-α-reductase; unit inferred) | time-dependence of 5-α-reductase inhibition (steroid 5-α-reductase) | Ki [1]
1 | CC12CCC(=O)C=C1CCC1C2CCC2(C)C(C(=O)O)CCC12 (stereo not shown) [(1)] | 1100 nM | Reversible | – | – | –
2 | CC(=O)C1CCC2C3CC=C=CC(=O)CCC(=O)C3CCC12C (stereo not shown) [(2)] | 1000 nM | Irreversible | – | – | –
3 | CC(CO)C1CCC2C3CCC4C(=[N+]=[N-])C(=O)CCC4(C)C3CCC12C (stereo not shown) [(3)] | – | Irreversible | 35 nM | potent, time-dependent | –
4 | CCN(CC)C(=O)C1CCC2C3CCC4N(C)C(=O)CCC4(C)C3CCC12C (stereo not shown) [(4)] | 5 nM | Reversible | – | – | –
5 | C=C1CC2C(CCC3(C)C2CCC3(OC(C)=O)C(C)=O)C2(C)CCC(=O)C=C12 (stereo not shown) [(5)] | 1250 nM | Irreversible | – | time-dependent inactivator | –
6 | CC(C)N(C(=O)[C@H]1CC[C@H]2[C@@H]3CCc4cc(S(=O)(=O)O)ccc4[C@H]3CC[C@]12C)C(C)C [Potassium 17β-(N,N-Diisopropylcarboxamide)-estr-1,3,5(10)-triene-3-sulfonate] | – | – | – | – | 10 nM
